In patent US20220380338A1, “CYCLOALKYL 3-OXOPIPERAZINE CARBOXAMIDES AND CYCLOHETEROALKYL 3-OXOPIPERAZINE CARBOXAMIDES AS NAV1.8 INHIBITORS” (Merck Sharp & Dohme LLC, priority 2021, published 2022) one finds IC50 data, which are given here for eleven compounds.

As usually defined, the IC50 is the midpoint of a concentration-inhibition curve. A low value points to higher potency.

The target of this assay is T1, human NaV1.8 (Homo sapiens, UniProt Q9Y5Y9).
T1 construct: expressed in transfected cells
T1 sequence (Q9Y5Y9 whole entry): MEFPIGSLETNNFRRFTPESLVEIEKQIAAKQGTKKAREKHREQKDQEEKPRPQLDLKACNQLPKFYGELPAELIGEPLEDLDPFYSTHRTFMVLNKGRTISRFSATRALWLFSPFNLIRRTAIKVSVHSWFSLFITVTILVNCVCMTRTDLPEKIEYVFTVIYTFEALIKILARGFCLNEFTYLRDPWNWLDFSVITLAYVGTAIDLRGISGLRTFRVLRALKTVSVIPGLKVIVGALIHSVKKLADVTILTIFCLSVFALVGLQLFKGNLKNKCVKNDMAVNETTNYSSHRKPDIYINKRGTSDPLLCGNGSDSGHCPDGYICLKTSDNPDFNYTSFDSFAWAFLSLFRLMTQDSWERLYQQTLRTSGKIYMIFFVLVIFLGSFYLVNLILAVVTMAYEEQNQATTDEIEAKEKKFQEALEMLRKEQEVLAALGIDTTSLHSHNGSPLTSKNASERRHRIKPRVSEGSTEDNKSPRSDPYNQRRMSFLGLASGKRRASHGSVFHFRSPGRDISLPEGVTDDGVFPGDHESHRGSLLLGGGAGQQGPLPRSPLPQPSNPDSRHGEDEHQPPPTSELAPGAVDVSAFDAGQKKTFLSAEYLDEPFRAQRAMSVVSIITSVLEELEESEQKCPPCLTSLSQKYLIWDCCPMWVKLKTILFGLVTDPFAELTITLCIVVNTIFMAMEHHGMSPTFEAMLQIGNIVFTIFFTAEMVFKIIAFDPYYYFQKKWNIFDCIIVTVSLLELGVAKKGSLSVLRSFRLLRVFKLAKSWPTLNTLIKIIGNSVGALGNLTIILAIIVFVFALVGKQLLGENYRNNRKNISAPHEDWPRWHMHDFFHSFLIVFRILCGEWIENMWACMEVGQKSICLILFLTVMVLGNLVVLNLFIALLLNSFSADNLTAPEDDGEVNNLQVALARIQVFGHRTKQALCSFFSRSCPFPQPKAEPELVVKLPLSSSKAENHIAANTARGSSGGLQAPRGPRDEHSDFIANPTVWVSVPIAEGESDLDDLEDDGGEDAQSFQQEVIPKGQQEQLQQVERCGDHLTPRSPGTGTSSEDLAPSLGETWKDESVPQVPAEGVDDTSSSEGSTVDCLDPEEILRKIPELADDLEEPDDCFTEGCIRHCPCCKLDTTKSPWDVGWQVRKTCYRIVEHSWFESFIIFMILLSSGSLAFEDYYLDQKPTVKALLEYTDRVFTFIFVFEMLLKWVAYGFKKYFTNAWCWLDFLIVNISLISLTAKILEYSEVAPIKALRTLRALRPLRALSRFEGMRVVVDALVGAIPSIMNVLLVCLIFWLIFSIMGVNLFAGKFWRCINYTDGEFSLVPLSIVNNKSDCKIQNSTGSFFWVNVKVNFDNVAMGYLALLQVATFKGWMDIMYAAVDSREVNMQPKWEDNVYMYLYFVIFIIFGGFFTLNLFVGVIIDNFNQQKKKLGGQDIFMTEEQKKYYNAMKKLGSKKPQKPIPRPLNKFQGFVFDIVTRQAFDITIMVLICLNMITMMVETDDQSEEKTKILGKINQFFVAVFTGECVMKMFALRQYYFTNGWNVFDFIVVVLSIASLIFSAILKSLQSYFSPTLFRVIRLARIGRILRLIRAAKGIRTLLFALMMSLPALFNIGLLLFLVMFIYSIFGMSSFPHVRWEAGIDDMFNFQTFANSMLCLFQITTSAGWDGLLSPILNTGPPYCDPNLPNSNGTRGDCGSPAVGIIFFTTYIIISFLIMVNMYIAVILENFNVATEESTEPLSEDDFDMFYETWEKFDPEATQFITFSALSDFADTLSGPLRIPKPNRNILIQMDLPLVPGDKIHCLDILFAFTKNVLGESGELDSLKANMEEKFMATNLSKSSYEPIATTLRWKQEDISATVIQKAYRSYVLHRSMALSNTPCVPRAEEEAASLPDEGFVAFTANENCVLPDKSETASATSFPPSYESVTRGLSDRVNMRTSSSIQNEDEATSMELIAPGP
The experiment in a line: Nav1.8 Qube® Assay (automated 384-well patch-clamp, inhibition of sodium current). Particulars: human NaV1.8 channels stably expressed in HEK 293 cells, room temperature. It counts as cell-based. The method, then: Compounds were tested on human NaV1.8 and NaV1.5 channels stably expressed in human embryo kidney (HEK) 293 cells. Sodium current measurements on Qube® were conducted as follows: automated 384-well patch-clamp assays on the Qube® platform (Sophion Biosciences) were used to measure the inhibition of sodium flow through human NaV1.8 and NaV1.5 channels. Whole-cell voltage-clamp recordings were performed in QChips® (Sophion Biosciences) at room temperature. NaV1.8 current measurements on Qube® were obtained as follows: NaV1.8 currents were elicited with a 10 second 1 Hertz (Hz) pulse train from a holding potential of −90 millivolts (mV), delivered to the cells once per minute in the control condition (DMSO only) and after compound addition. The 1 hertz pulse train stimulation consisted of ten test pulses to 10 millivolt (mV) for 20 milliseconds (ms), each of which was followed by a 980 millisecond repolarization to −67 millivolts. At the end of the 10 second pulse train stimulation, a 5 second hyperpolarization step to −100 millivolt (mV) was used to recover NaV1.8 from fast inactivation. The peak currents elicited by the 1st and 10th test pulses were used to determine IC50 values for resting inhibition and inactivated state inhibition. NaV1.5 current measurements on Qube® were obtained as follows: NaV1.5 currents were elicited with a 20 second 3 Hertz pulse train in the control condition (DMSO only) and after compound addition. The pulse train consisted of sixty 20 millisecond test pulses to 0 millivolt from a holding potential of −80 millivolt (mV). The average peak currents elicited by the last 3 test pulses were used to determine IC50 values for NaV1.5 inhibition.
The following buffers were used for the Qube® recordings: External buffer for NaV1.8 Qube® recording: 150 NaCl, 2 CaCl2, 5 KCl, 1 Mg Cl2, 10 HEPES, 12 Dextrose; External buffer for Qube® NaV1.5 recording: 120 N-Methyl-D-Glucamine, 40 NaCl, 1 KCl, 2.7 CaCl2, 5 HEPES, 0.5 MgCl2; and Internal buffer for Qube® recording: 120 CsF, 30 CsCl, 10 EGTA, 5 HEPES, 5 NaF, 2 MgCl2.
For all Qube® experiments offline analysis was used to determine percent inhibition as a function of drug concentration. IC50 values were determined by fitting to the Hill equation.
Compound `C[C@@H]1C(=O)NCCN1C(=O)NC(c1ccc(F)c(Cl)c1F)[C@@H]1C[C@@H]2[C@H](C1)C2(F)F` (single isomer, unassigned) [Example 11A, (R)-N-((R or S)-(3-chloro-2,4-difluoro-phenyl)((1R,3s,5S)-6,6-difluoro-bicyclo[3.1.0]hexan-3-yl)methyl)-2-methyl-3-oxo-piperazine-1-carboxamide] registered an IC50 of 870 nM. To `C[C@@H]1C(=O)NCCN1C(=O)NC(c1ccc(F)c(Cl)c1F)[C@@H]1C[C@@H]2[C@H](C1)C2(F)F` (single isomer, unassigned) [Example 11B, (R)-N-((S or R)-(3-chloro-2,4-difluoro-phenyl)((1R,3s,5S)-6,6-difluoro-bicyclo[3.1.0]hexan-3-yl)methyl)-2-methyl-3-oxo-piperazine-1-carboxamide] belongs 4.14 nM; to `O=C1CN(C(=O)NC(c2ccc(F)c(Cl)c2)C23CCC(C(F)(F)F)(CC2)CC3)CCN1` (single isomer, unassigned) [Example 12A, N-((R or S)-(3-chloro-4-fluoro-phenyl)(4-(trifluoro-methyl)bicyclo[2.2.2]octan-1-yl)methyl)-3-oxopiperazine-1-carboxamide], 343 nM. As for `O=C1CN(C(=O)NC(c2ccc(F)c(Cl)c2)C23CCC(C(F)(F)F)(CC2)CC3)CCN1` (single isomer, unassigned) [Example 12B, N-((S or R)-(3-chloro-4-fluoro-phenyl)(4-(trifluoro-methyl)bicyclo[2.2.2]octan-1-yl)methyl)-3-oxopiperazine-1-carboxamide], the figure is 11.5 nM.

`C[C@@H]1C(=O)NCCN1C(=O)NC(c1ccc(F)c(Cl)c1F)C1CCC(F)(F)CC1` (single isomer, unassigned) [Example 13A, (2R)-N-((R or S)-(3-chloro-2,4-difluoro-phenyl)(4,4-difluoro-cyclohexyl)methyl)-2-methyl-3-oxo-piperazine-1-carboxamide] displayed an IC50 of 13.4 nM. As for `C[C@@H]1C(=O)NCCN1C(=O)NC(c1ccc(F)c(Cl)c1F)C1CCC(F)(F)CC1` (single isomer, unassigned) [Example 13B, (2R)-N-((S or R)-(3-chloro-2,4-difluoro-phenyl)(4,4-difluoro-cyclohexyl)methyl)-2-methyl-3-oxo-piperazine-1-carboxamide], the figure is 726 nM. `C[C@@H]1C(=O)NCCN1C(=O)NC(c1ccc(F)c(Cl)c1)C1CCC(F)(F)CC1` (single isomer, unassigned) [Example 14A, (2R)-N-((R or S)-(3-chloro-4-fluoro-phenyl)(4,4-difluoro-cyclohexyl)methyl)-2-methyl-3-oxo-piperazine-1-carboxamide] returned an IC50 of 18.5 nM. `C[C@@H]1C(=O)NCCN1C(=O)NC(c1ccc(F)c(Cl)c1)C1CCC(F)(F)CC1` (single isomer, unassigned) [Example 14B, (2R)-N-((S or R)-(3-chloro-4-fluoro-phenyl)(4,4-difluoro-cyclohexyl)methyl)-2-methyl-3-oxo-piperazine-1-carboxamide] gave an IC50 of 359 nM. Consider `C[C@@H]1C(=O)NCCN1C(=O)NC(c1ccc(F)c(Cl)c1)C1CCN(CC(F)(F)F)CC1` (single isomer, unassigned) [Example 15A], for which the IC50 amounted to 28.3 nM. To `C[C@@H]1C(=O)NCCN1C(=O)NC(c1ccc(F)c(Cl)c1)C1CCN(CC(F)(F)F)CC1` (single isomer, unassigned) [Example 15B] belongs 553 nM; to `C[C@@H]1C(=O)NCCN1C(=O)NC(c1ccc(Cl)cc1)C1CCN(CC(F)(F)F)CC1` (single isomer, unassigned) [Example 16A, (2R)-N-((R or S)-(4-chlorophenyl)(1-(2,2,2-trifluoroethyl)piperidin-4-yl)methyl)-2-methyl-3-oxopiperazine-1-carboxamide], 366 nM.
